The record followed here is PubChem BioAssay (NCI).

Test systems include M19-MEL melanoma; HOP-92 NSCLC; TK-10 renal; SK-OV-3 ovarian; LXFL 529 NSCLC; DLD-1 colon; UO-31 renal; OVCAR-5 ovarian; COLO 205 colon; LOX IMVI melanoma; CCRF-CEM leukemia; KM20L2 colon.
Assay in all cases: NCI-60 cell line screen, 48 h

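Tested at 5 concentrations; 48 h exposure; 96-well plates; endpoints linearly interpolated, else capped at highest concentration. TGI: concentration producing complete growth inhibition.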 A value given as a limit tells only on which side of the number the result lay.

Consider `C/C(=N\NC(N)=S)c1ccc2c(c1)OCO2`, for which the TGI in the assay on M19-MEL melanoma, in the assay with HOP-92 NSCLC, in the assay on TK-10 renal, with SK-OV-3 ovarian, in the assay with LXFL 529 NSCLC and in the assay with DLD-1 colon was over 100 µM in each case. In addition, the TGI in the assay on UO-31 renal, with OVCAR-5 ovarian, with COLO 205 colon, in the assay on LOX IMVI melanoma, in the assay on CCRF-CEM leukemia and in the assay with KM20L2 colon was over 100 µM throughout.
For the compound `CC(C)=CC(=O)Cc1nc2ccccc2[nH]c1=O`, the TGI is over 100 µM in the assay on M19-MEL melanoma; 68 µM in the assay with HOP-92 NSCLC; over 100 µM with TK-10 renal; over 100 µM in the assay with SK-OV-3 ovarian; over 100 µM with LXFL 529 NSCLC; over 100 µM in the assay on DLD-1 colon. Besides, the TGI in the assay with UO-31 renal, with OVCAR-5 ovarian, in the assay on COLO 205 colon, in the assay on LOX IMVI melanoma, with CCRF-CEM leukemia and with KM20L2 colon was over 100 µM each time.
For the compound `CSC(=S)N(C)c1nc(=[N+](C)C)ss1`, the TGI in the assay with M19-MEL melanoma, in the assay with HOP-92 NSCLC, in the assay with TK-10 renal, in the assay with SK-OV-3 ovarian, with LXFL 529 NSCLC and with DLD-1 colon was over 100 µM throughout. For the same compound, the TGI in the assay on UO-31 renal, with OVCAR-5 ovarian, with CCRF-CEM leukemia and with KM20L2 colon was over 100 µM each time.
For the compound `Clc1ccc(C2=Nc3ccccc3SC(c3ccc(Cl)c(Cl)c3)C2)c(Cl)c1` (stereo unspecified), the TGI with M19-MEL melanoma was found to be 32.2 µM; in the assay with HOP-92 NSCLC, 30.1 µM; with TK-10 renal it was 36.9 µM; in the assay with SK-OV-3 ovarian it was 52.1 µM; in the assay with LXFL 529 NSCLC it was 29.2 µM; with DLD-1 colon, 25.6 µM. Moreover, the TGI worked out at 28.1 µM with UO-31 renal; 32.1 µM with OVCAR-5 ovarian; 35 µM in the assay with COLO 205 colon; 21.6 µM in the assay with LOX IMVI melanoma; 17.1 µM in the assay with CCRF-CEM leukemia; 39.7 µM in the assay on KM20L2 colon.
For `O=S(=O)(O)C(F)(F)C(F)(F)C(F)(F)C(F)(F)F`, the TGI in the assay with M19-MEL melanoma, in the assay on HOP-92 NSCLC, with TK-10 renal, in the assay with SK-OV-3 ovarian, in the assay on LXFL 529 NSCLC and in the assay on DLD-1 colon was over 100 µM each time. Besides, the TGI with UO-31 renal, in the assay on OVCAR-5 ovarian, in the assay with COLO 205 colon, in the assay on LOX IMVI melanoma, with CCRF-CEM leukemia and in the assay on KM20L2 colon was over 100 µM each time.
`Cc1cc2c(cn1)C(=O)OCC2`: the TGI in the assay with M19-MEL melanoma, with TK-10 renal, in the assay with SK-OV-3 ovarian, in the assay on LXFL 529 NSCLC, with DLD-1 colon and with UO-31 renal was over 100 µM each time. The TGI in the assay on OVCAR-5 ovarian, in the assay on LOX IMVI melanoma, with CCRF-CEM leukemia and with KM20L2 colon was over 100 µM in each case.
Take `COc1ccc(C2(CN(C)C)COc3cc(OC)c(OC)cc3C2=O)cc1OC` (stereo unspecified): the TGI with M19-MEL melanoma was over 100 µM; with HOP-92 NSCLC, over 100 µM; with TK-10 renal, over 100 µM; in the assay on SK-OV-3 ovarian it was over 100 µM; in the assay on LXFL 529 NSCLC it was 48.8 µM; in the assay on DLD-1 colon it was 44.6 µM. In addition, the TGI was over 100 µM in the assay on UO-31 renal; 76.2 µM with COLO 205 colon; 31.1 µM in the assay with LOX IMVI melanoma; 58.1 µM with CCRF-CEM leukemia; over 100 µM in the assay with KM20L2 colon.
Turning to `Cc1ccccc1C(C#N)/C(=N/NC(=O)c1cc2ccccc2cc1O)C(=O)Nc1cccc(Cl)c1` (stereo unspecified), the TGI in the assay with M19-MEL melanoma was 52.1 µM; in the assay on HOP-92 NSCLC, over 100 µM; in the assay on TK-10 renal it was over 100 µM; in the assay on SK-OV-3 ovarian, over 100 µM; with LXFL 529 NSCLC it was over 100 µM; with DLD-1 colon it was over 100 µM. Also, the TGI was 8.4 µM in the assay with UO-31 renal; 51.2 µM in the assay on OVCAR-5 ovarian; 72.5 µM in the assay with COLO 205 colon; over 100 µM in the assay on CCRF-CEM leukemia; 94.4 µM with KM20L2 colon.
Turning to `CCCOc1ccc(/C=C/c2cc(OC)c(OC)c(OC)c2)cc1`, the TGI in the assay on M19-MEL melanoma is over 100 µM; with HOP-92 NSCLC, 7.41 µM; with TK-10 renal it was over 100 µM; in the assay with LXFL 529 NSCLC it was over 100 µM; in the assay on DLD-1 colon, 35.7 µM; with UO-31 renal, over 100 µM. The TGI with OVCAR-5 ovarian was 72.9 µM; in the assay with COLO 205 colon, 2.42 µM; with LOX IMVI melanoma it was over 50.5 µM; in the assay on CCRF-CEM leukemia, 24.5 µM; in the assay with KM20L2 colon, 0.406 µM.
For the compound `O=C(CC(=O)Nc1ccc(Cl)cc1)NNCC(=O)Nc1nc(-c2ccccc2)cs1`, the TGI with M19-MEL melanoma, in the assay with TK-10 renal, with SK-OV-3 ovarian, in the assay on LXFL 529 NSCLC, in the assay with DLD-1 colon and in the assay on COLO 205 colon was over 100 µM in each case. Also, the TGI with LOX IMVI melanoma, in the assay with CCRF-CEM leukemia and in the assay on KM20L2 colon was over 100 µM each time.
As for `CCc1ccccc1NC(=O)CCc1nc(=S)[nH][nH]1`, the TGI in the assay on M19-MEL melanoma, in the assay on HOP-92 NSCLC, with TK-10 renal, in the assay on SK-OV-3 ovarian, in the assay on LXFL 529 NSCLC and in the assay with DLD-1 colon was over 100 µM in each case. The TGI with UO-31 renal, in the assay with OVCAR-5 ovarian, with COLO 205 colon, with LOX IMVI melanoma, in the assay on CCRF-CEM leukemia and with KM20L2 colon was over 100 µM in each case.
For the compound `CC(=O)/C=C1/c2ccccc2N(C(C)=O)C1O` (stereo unspecified), the TGI with M19-MEL melanoma, with HOP-92 NSCLC, with SK-OV-3 ovarian, in the assay with LXFL 529 NSCLC, in the assay on DLD-1 colon and in the assay on UO-31 renal was over 100 µM throughout. Also, the TGI in the assay with COLO 205 colon, with CCRF-CEM leukemia and in the assay on KM20L2 colon was over 100 µM in each case.
